Numbered stars: 1 amine (or outer) side, 2 acyl side, 3 side chain; on linkers, the order of the positions; unused ones are H or OH. Bridge positions count the residues as written; N and C are the ends. Square brackets hold non-standard residues; d marks the D form. Side chains are listed from the residue outwards. Peptide text beside a SMILES is read from it. * marks the point of attachment. C20 diacid = O=C(O)CCCCCCCCCCCCCCCCCCC(=O)*; C18 diacid = O=C(O)CCCCCCCCCCCCCCCCC(=O)*; γGlu = O=C(O)[C@H](CCC(=O)[*:2])N[*:1]; Aib = CC(C)(N)C(=O)O
Key:
[1] = molecular target: T1, human calcitonin receptor (hCTR) (Homo sapiens, UniProt P30988); experiment: cAMP production in 1321N1 cells with stable recombinant expression of human calcitonin receptor (hCTR); format: cell-based; details: cAMP, 1321N1 cells, assay buffer with 0.1% BSA; read-out: EC50 (pM) hCTR
T1 construct: expressed in transfected cells
T1 sequence (P30988 25-474): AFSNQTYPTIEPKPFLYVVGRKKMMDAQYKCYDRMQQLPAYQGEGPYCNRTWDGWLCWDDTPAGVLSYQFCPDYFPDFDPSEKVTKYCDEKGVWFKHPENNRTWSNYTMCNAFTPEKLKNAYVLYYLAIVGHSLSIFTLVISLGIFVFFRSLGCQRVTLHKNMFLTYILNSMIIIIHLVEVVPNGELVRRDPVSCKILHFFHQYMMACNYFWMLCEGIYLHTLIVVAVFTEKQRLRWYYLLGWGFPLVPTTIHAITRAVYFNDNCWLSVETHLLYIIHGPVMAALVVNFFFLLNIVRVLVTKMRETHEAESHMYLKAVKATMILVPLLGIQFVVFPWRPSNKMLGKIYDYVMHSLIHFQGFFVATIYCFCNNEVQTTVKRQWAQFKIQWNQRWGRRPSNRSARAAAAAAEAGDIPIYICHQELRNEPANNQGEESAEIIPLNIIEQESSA
Method in brief: (§1)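 Receptor-expressing cells (human receptors in 1321N1, rat receptors in HEK) incubated 30 min at room temperature with peptide in HBSS/HEPES pH 7.4, 0.1% BSA, 0.5 mM IBMX. cAMP read by HTRF; EC50 from 4-parameter fit as % of maximal amylin or calcitonin response.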

in vivo = details: male, Sprague-Dawley, rat, 20 nmol/kg
[2] = molecular target: T2, human amylin receptor (calcitonin receptor co-expressed with receptor activity modifying protein, RAMP3) (hAMYR3) (Homo sapiens, UniProt O60896+P30988); experiment: cAMP production in 1321N1 cells with stable recombinant expression of human amylin receptor (hAMYR3); format: cell-based; details: for Ratio (selectivity hAMYR vs hCTR, ratio of EC50 values at the two receptors): EC50 hCTR / EC50 hAMYR3; for EC50: cAMP, 1321N1 cells, assay buffer with 0.1% BSA, read-out: EC50 (pM) hAMYR3
T2 construct: expressed in transfected cells
T2 sequence (P30988 25-474): T1 sequence (P30988 25-474)
T2 sequence (O60896 24-148 partner): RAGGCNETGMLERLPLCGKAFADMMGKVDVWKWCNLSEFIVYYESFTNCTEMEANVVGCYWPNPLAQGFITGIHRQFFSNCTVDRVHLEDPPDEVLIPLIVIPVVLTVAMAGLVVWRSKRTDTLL
Method in brief: as §1

[3] = Thioflavin T fibrillation assay; format: physicochemical; details: ThT fibrillation assay; peptide 1 mg/mL in 25 mM sodium acetate buffer pH 4.0; 6 days at 37 °C with shaking; >144 h = no increase
Source text: Peptide aggregation that form fibrils is an indication of physical instability. Fibril formation in solution poses a significant risk for the stability of injectable peptide drug products. Thioflavin T (ThT) fibrillation assay is a useful tool to assess the aggregation kinetics of a peptide or protein under accelerated and stressed conditions that can be used to forecast the long-term viability of a compound in solution. ThT can selectively bind amyloid fibrils and the resultant complex emits strong fluorescence signal at 482 nm when excited at 450 nm (Anal Biochem. 1989 Mar;177(2):244-9). Monitoring of the change in fluorescence signal is an established method to study the fibril forming potential of peptides and proteins. ThT (purchased from Sigma Aldrich) stock solution is prepared by dissolving the ThT powder in Milli-Q water and filtered to obtain a 0.25 mM solution. The concentration of the solution is measured at 412 nm using an extinction coefficient of 36 mM^−1cm^−1. Test peptides were dissolved at 1 mg/mL in 25 mM sodium acetate buffer pH 4.0. 100 μL aliquot of peptide solution and 5 μL aliquot of ThT solution were placed in a clear bottom black fluorescence 96-well plate. 5 replicates of each test samples were placed in zo the same row of the plate. Buffer was placed in control wells for baseline correction. All empty wells were filled with water to prevent evaporation. The plate was sealed with aluminium seal and placed in fluorescence plate reader and incubated for 6 days at 37 ° C. with intermittent orbital shaking at 500 to 750 rpm. The fluorescence intensity was measured every 30 min using excitation at 444 nm and emission at 480 nm. The fibril forming potential of the test peptides was determined by measuring the average time taken to detect an increase in baseline corrected fluorescence intensity.

## CC[C@H](C)[C@H](NC(=O)[C@H](C)NC(=O)[C@@H]1CCCN1C(=O)[C@H](Cc1ccccc1)NC(=O)[C@H](CC(N)=O)NC(=O)C(C)(C)NC(=O)[C@H](CO)NC(=O)[C@H](CO)NC(=O)[C@H](Cc1c[nH]cn1)NC(=O)[C@@H](NC(=O)[C@H](CC(C)C)NC(=O)[C@H](Cc1ccccc1)NC(=O)[C@H](CC(N)=O)NC(=O)[C@H](C)NC(=O)[C@H](CC(C)C)NC(=O)[C@H](CCCNC(=N)N)NC(=O)[C@H](CCC(N)=O)NC(=O)[C@@H](NC(=O)[C@H](C)NC(=O)[C@@H]1CSSC[C@H](NC(=O)[C@@H](N)CCCCNC(=O)CC[C@H](NC(=O)CC[C@H](NC(=O)CCCCCCCCCCCCCCCCCCC(=O)O)C(=O)O)C(=O)O)C(=O)N[C@@H](CC(N)=O)C(=O)N[C@@H]([C@@H](C)O)C(=O)N[C@@H](C)C(=O)N[C@@H]([C@@H](C)O)C(=O)N1)[C@@H](C)O)C(C)C)C(=O)N[C@@H](CC(C)C)C(=O)N[C@@H](CO)C(=O)N1CCC[C@H]1C(=O)N[C@H](C(=O)N[C@@H](CC(N)=O)C(=O)N[C@H](C(=O)NCC(=O)N[C@@H](CO)C(=O)N[C@@H](CC(N)=O)C(=O)N[C@H](C(=O)N[C@@H](Cc1ccc(O)cc1)C(N)=O)[C@@H](C)O)C(C)C)[C@@H](C)O [Peptide 117, K(γE-γE-C20diacid)[CNTATC]ATQRLANFLVHSS(Aib)NFPAILSPTNVGSNTY-amide] (H-K([γGlu-γGlu-C20 diacid])CNTATCATQRLANFLVHSS[Aib]NFPAILSPTNVGSNTY-NH2; disulfide 2-7; N-terminus assumed)
[1]
  EC50: 3190 pM
In vivo; iv
  half-life: 9.8 h
In vivo; sc
  half-life: 12.9 h
[2]
  Ratio (selectivity hAMYR vs hCTR, ratio of EC50 values at the two receptors): 4
  EC50: 770 pM

## CC[C@H](C)[C@H](NC(=O)[C@@H]1CCCN1C(=O)CNC(=O)[C@H](Cc1ccccc1)NC(=O)[C@H](CC(N)=O)NC(=O)C(C)(C)NC(=O)[C@H](CO)NC(=O)[C@H](CO)NC(=O)[C@H](Cc1c[nH]cn1)NC(=O)[C@@H](NC(=O)[C@H](CC(C)C)NC(=O)[C@H](Cc1ccccc1)NC(=O)[C@H](CC(N)=O)NC(=O)[C@H](C)NC(=O)[C@H](CC(C)C)NC(=O)[C@H](CCCNC(=N)N)NC(=O)[C@H](CCC(N)=O)NC(=O)[C@@H](NC(=O)[C@H](C)NC(=O)[C@@H]1CSSC[C@H](NC(=O)[C@H](CCCCN)NC(=O)[C@@H](N)CCCCNC(=O)CC[C@H](NC(=O)CC[C@H](NC(=O)CCCCCCCCCCCCCCCCC(=O)O)C(=O)O)C(=O)O)C(=O)N[C@@H](CC(N)=O)C(=O)N[C@@H]([C@@H](C)O)C(=O)N[C@@H](C)C(=O)N[C@@H]([C@@H](C)O)C(=O)N1)[C@@H](C)O)C(C)C)C(=O)N[C@@H](CC(C)C)C(=O)N1CCC[C@H]1C(=O)N1CCC[C@H]1C(=O)N[C@H](C(=O)N[C@@H](CCCNC(=N)N)C(=O)N[C@H](C(=O)NCC(=O)N[C@@H](CO)C(=O)N[C@@H](CC(N)=O)C(=O)N[C@H](C(=O)N[C@@H](Cc1ccc(O)cc1)C(N)=O)[C@@H](C)O)C(C)C)[C@@H](C)O [Peptide 70, K(γE-γE-C18diacid)K[CNTATC]ATQRLANFLVHSS(Aib)NFGPILPPTRVGSNTY-amide] (H-K([γGlu-γGlu-C18 diacid])KCNTATCATQRLANFLVHSS[Aib]NFGPILPPTRVGSNTY-NH2; disulfide 3-8; N-terminus assumed)
[1]
  EC50: 5400 pM
[3]
  Time taken to detect increase in fluorescence intensity: >144 h
In vivo; iv
  half-life: 10.3 h
In vivo; sc
  half-life: 12.5 h
[2]
  Ratio (selectivity hAMYR vs hCTR, ratio of EC50 values at the two receptors): 23
  EC50: 235 pM

## CC[C@H](C)[C@H](NC(=O)[C@@H]1CCCN1C(=O)CNC(=O)[C@H](Cc1ccccc1)NC(=O)[C@H](CC(N)=O)NC(=O)C(C)(C)NC(=O)[C@H](CO)NC(=O)[C@H](CO)NC(=O)[C@H](Cc1c[nH]cn1)NC(=O)[C@@H](NC(=O)[C@H](CC(C)C)NC(=O)[C@H](Cc1ccccc1)NC(=O)[C@H](CC(N)=O)NC(=O)[C@H](C)NC(=O)[C@H](CC(C)C)NC(=O)[C@H](CCCNC(=N)N)NC(=O)[C@H](CCC(N)=O)NC(=O)[C@@H](NC(=O)[C@H](C)NC(=O)[C@@H]1CSSC[C@H](NC(=O)[C@H](CCCCN)NC(=O)[C@@H](N)CCCCNC(=O)CC[C@H](NC(=O)CCCCCCCCCCCCCCCCC(=O)O)C(=O)O)C(=O)N[C@@H](CC(N)=O)C(=O)N[C@@H]([C@@H](C)O)C(=O)N[C@@H](C)C(=O)N[C@@H]([C@@H](C)O)C(=O)N1)[C@@H](C)O)C(C)C)C(=O)N[C@@H](CC(C)C)C(=O)N1CCC[C@H]1C(=O)N1CCC[C@H]1C(=O)N[C@H](C(=O)N[C@@H](CCCNC(=N)N)C(=O)N[C@H](C(=O)NCC(=O)N[C@@H](CO)C(=O)N[C@@H](CC(N)=O)C(=O)N[C@H](C(=O)N[C@@H](Cc1ccc(O)cc1)C(N)=O)[C@@H](C)O)C(C)C)[C@@H](C)O [Peptide 69, K(γE-C18diacid)K[CNTATC]ATQRLANFLVHSS(Aib)NFGPILPPTRVGSNTY-amide] (H-K([γGlu-C18 diacid])KCNTATCATQRLANFLVHSS[Aib]NFGPILPPTRVGSNTY-NH2; disulfide 3-8)
[1]
  EC50: 1570 pM
In vivo; iv
  half-life: 6.3 h
In vivo; sc
  half-life: 8.5 h
[2]
  Ratio (selectivity hAMYR vs hCTR, ratio of EC50 values at the two receptors): 10
  EC50: 164 pM

## CC[C@H](C)[C@H](NC(=O)[C@@H]1CCCN1C(=O)CNC(=O)[C@H](Cc1ccccc1)NC(=O)[C@H](CC(N)=O)NC(=O)C(C)(C)NC(=O)[C@H](CO)NC(=O)[C@H](CO)NC(=O)[C@H](Cc1c[nH]cn1)NC(=O)[C@@H](NC(=O)[C@H](CC(C)C)NC(=O)[C@H](Cc1ccccc1)NC(=O)[C@H](CC(N)=O)NC(=O)[C@H](C)NC(=O)[C@H](CC(C)C)NC(=O)[C@H](CCCNC(=N)N)NC(=O)[C@H](CCC(N)=O)NC(=O)[C@@H](NC(=O)[C@H](C)NC(=O)[C@@H]1CSSC[C@H](NC(=O)[C@@H](N)CCCCNC(=O)CC[C@H](NC(=O)CCCCCCCCCCCCCCCCC(=O)O)C(=O)O)C(=O)N[C@@H](CC(N)=O)C(=O)N[C@@H]([C@@H](C)O)C(=O)N[C@@H](C)C(=O)N[C@@H]([C@@H](C)O)C(=O)N1)[C@@H](C)O)C(C)C)C(=O)N[C@@H](CC(C)C)C(=O)N1CCC[C@H]1C(=O)N1CCC[C@H]1C(=O)N[C@H](C(=O)N[C@@H](CC(N)=O)C(=O)N[C@H](C(=O)NCC(=O)N[C@@H](CO)C(=O)N[C@@H](CCCNC(=N)N)C(=O)N[C@H](C(=O)N[C@@H](Cc1ccc(O)cc1)C(N)=O)[C@@H](C)O)C(C)C)[C@@H](C)O [Peptide 64, K(γE-C18diacid)[CNTATC]ATQRLANFLVHSS(Aib)NFGPILPPTNVGSRTY-amide] (H-K([γGlu-C18 diacid])CNTATCATQRLANFLVHSS[Aib]NFGPILPPTNVGSRTY-NH2; disulfide 2-7; N-terminus assumed)
[1]
  EC50: 1280 pM
In vivo; iv
  half-life: 6 h
In vivo; sc
  half-life: 5 h
[2]
  Ratio (selectivity hAMYR vs hCTR, ratio of EC50 values at the two receptors): 9
  EC50: 149 pM

— US20240067693A1, “POLYPEPTIDES AND USES THEREOF” (MEDIMMUNE LIMITED, priority 2020, published 2024)
